Measurements reported in patent US5597894A (The Louisiana State University Medical Center Foundation, priority 1995, dated 1997).
Like-named read-outs stand apart in the source and are kept apart here. Positions of bridges follow the written chain, without caps; N, C: chain ends. Non-standard residues stand in square brackets, D forms with d. Residues, ends and D or L forms follow the SMILES beside them.

Experiments:
[1] = target: T1, type 2 somatostatin receptors (SSTR2) (Homo sapiens, UniProt P30874); experiment: Somatostatin receptor binding assay on IMR32 membranes
T1 construct: IMR32 membrane fractions (100-150 μg) were incubated with 0.015 pM; host or cells: IMR32 human neuroblastoma cells (membrane fractions)
T1 sequence (P30874 whole entry): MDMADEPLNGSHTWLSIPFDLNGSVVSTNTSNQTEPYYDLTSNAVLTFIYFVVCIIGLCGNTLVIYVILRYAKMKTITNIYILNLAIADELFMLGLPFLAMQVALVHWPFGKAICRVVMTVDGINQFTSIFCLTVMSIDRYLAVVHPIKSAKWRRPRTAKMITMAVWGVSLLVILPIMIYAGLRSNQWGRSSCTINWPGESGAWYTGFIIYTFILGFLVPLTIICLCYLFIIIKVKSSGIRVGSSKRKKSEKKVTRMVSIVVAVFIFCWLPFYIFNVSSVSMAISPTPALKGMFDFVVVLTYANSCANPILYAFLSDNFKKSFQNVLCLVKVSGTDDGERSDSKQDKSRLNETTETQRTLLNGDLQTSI
Protocol: The IMR32 cells were maintained in minimal essential media (MEM) supplemented with 15% heat-inactivated fetal bovine serum, 100 U/ml penicillin, 100 μg/ml streptomycin and nonessential amino acids. Cultured cells were harvested in a buffer containing 20 mM HEPES, 2 mM MgCl2, 5 mM EDTA, 1 mM 2-mercaptoethanol, 150 mM NaCl, and 50 μg/ml phenylmethylsulfonylfluoride (PMSF), (pH 7.4) at a concentration of 1×10^6 cells/ml. Cell membranes were prepared according to the method of O'Dorisio, M. S. et al., Cell Growth and Differentiation, 5:1-8, 1994. Membrane fractions were prepared by differential centrifugation and the membranes resuspended in buffer and stored at -80° for receptor binding studies.
Binding assays were carried out according to the method of O'Dorisio et al., supra. […] The reaction was terminated by centrifugation at 11,000×G for 3 minutes. Supernatant fluid was aspirated and the radioactivity of bound ligand in the pellet quantified in a gamma counter.
Specific binding was calculated using the difference between total and non-specific (in the presence of 1 μM unlabeled ligand) binding. Equilibrium dissociation constants (KD) and the maximal number of binding sites (Bmax) were determined using seven concentrations of unlabeled peptide in a competitive binding curve and calculated using a computerized nonlinear least squares fit to the mass-law equation of Munson and Rodbard, Munson, P. J. et al., Anal. Biochem., 107:220-239, 1980, as modified by McPhearson, G. A., J. of Pharm. Meth., 14:213-228, 1985.

[2] = test system: rat pituitary cells, which express SSTR2; experiment: Inhibition of growth hormone (GH) release from acutely dispersed rat pituitary cells; type: cell-based; conditions: in the presence of 1 nM GRF(1-29)NH2, 3 h at 37° C., number in brackets = samples tested
Excerpt: Pituitaries from adult Charles River CD male rats (Wilmington, Mass.) housed under controlled conditions (lights on from 0500-1900 hrs), were dispersed and cultured using aseptic technique as previously described with modifications (Hoefer et al., Mol. Cell Endocrinol., 35:229, (1984); Ben-Jonathan et al., i Methods Enzymol., 103:249, (1983); and Heiman et al., Endocrinology, 116:410, (1985).
Briefly, pituitaries were removed from decapitated rats, sectioned, and then placed in a siliconized, liquid scintillation vial containing 2 ml 0.2% trypsin (Worthington Biochemicals, Freehold, N.J.) in sterile-filtered Krebs-Ringer bicarbonate buffer supplemented with 1% bovine serum albumin, 14 mM glucose, modified Eagle medium (MEM) vitamin solution and MEM amino acids (Gibco Laboratories, Grand Island, N.Y.) (KRBGA). All glassware was siliconized as described by Sayers et al., Endocrinology, 88:1063, (1971). The pituitary fragments were incubated in a water bath for 35 min at 37° C. with agitation. The vial contents were then poured into a scintillation vial containing 2 ml 0.1% DNase (Sigma Chemical Co., St. Louis, Mo.) in KRBGA and incubated for 2 min at 37° C. with agitation. After incubation the tissue was decanted into a 15 ml centrifuge tube and allowed to settle. The medium was discarded, and the pituitary sections were washed 3 times with 1 ml fresh KRBGA. The cells were dispersed in 2 ml 0.05% LBI (lima bean trypsin inhibitor, Worthington Biochemicals) by gently drawing the fragments into and expelling them out of a siliconized, fire-polished Pasteur pipette. Dispersed cells were filtered through a 630 μm diameter Nylon mesh (Tetko, Elmsford, N.Y.) into a fresh 15 ml centrifuge tube. An additional 2 ml of 0.05% LBI solution was used to rinse the first tube and was transferred to the second tube with filtering.
The dispersed cells were further diluted with approximately 15 ml sterile-filtered Dulbecco's modified Eagle medium (GIBCO), supplemented with 2.5% fetal calf serum (GIBCO), 3% horse serum (GIBCO), 10% fresh rat serum (stored on ice for no longer than 1 h) from the pituitary donors, 1% MEM non-essential amino acids (GIBCO), gentamycin ([…]; Sigma) and nystatin (10,000 U/ml; GIBCO). The cells were poured into a 50 ml round-bottomed glass extraction flask with a large diameter opening, counted with a hemacytometer (approximately 2,000,000 cells per pituitary), and randomly plated at a density of 200,000 cells per well (Co-star cluster 24; Rochester Scientific Co., Rochester, N.Y.). The plated cells were maintained in Dulbecco's medium in a humidified atmosphere of 95% air and 5% CO2 at 37° C. for 4 days to 5 days.
In preparation for a hormone challenge, the cells were washed 3 times with medium 199 (GIBCO) to remove old medium and floating cells. […] After 3 h at 37° C. in an air/carbon dioxide atmosphere (95/5%), the medium was removed and stored at -20 ° C. until assayed for hormone content. IC50 's (a concentration that provides half-maximal inhibition of GH release) were calculated using the computer program SigmaPlot (Jandel Scientific, San Rafael, Calif.).

[3] = Stability of 131I-labeled peptides stored in saline; type: physicochemical; conditions: one week after labeling
Protocol: All specimen activity (μCi) was measured in a dose calibrator at least 30 minutes prior to intravenous injection. Radiolabeled peptide was injected through a peripheral arm vein in a free-flowing intravenous line. One week after labeling, only 30% of the ^131 I-labeled multi-tyrosinated peptides WOC-3A and WOC-3B compounds stored in saline had degraded.

[4] = test system: bronchioloalveolar carcinoma of the lung (somatostatin receptor-expressing tumors); experiment: Biodistribution and dosimetry of 131I WOC-3A (1.6 mCi i.v.) in a human patient; type: in vivo; conditions: extrapolated for a dose of 1,500 mCi
Protocol: A batch of ^131 I WOC-3A (1.6 mCi) was made (Iso-Tex Corporation, Friendswood, TX) and its sterility and pyrogenicity tested at Iso-Tex. Radiolabeled WOC-3A was injected intravenously and the pharmacokinetics and biodistribution of the radiolabeled compound were calculated. The tumor/normal tissue ratio of distribution of radiolabeled WOC-3A was approximately 3:1 to 6:1.
Following injection of 1.6 mCi of ^131 I WOC-3A, the patient underwent three days of nuclear medicine scanning using a 3-headed SPECT camera as well as an ADAC camera. In addition, whole body radiation counts were obtained to calculate whole-body loss of radioisotope over the three day period. […] Bone marrow would receive in excess of 450 rads (a dose requiring bone marrow transplantation in 50% of patients). Thus, in preparation for bone marrow transplantation, the patient underwent bone marrow harvest to provide cells for reinfusion after WOC-3 therapy and sufficient clearance of the radiolabeled analog from the patient's circulation.

[5] = test system: bronchioloalveolar carcinoma of the lung; experiment: Subcutaneous octreotide acetate therapy in a human patient; conditions: 2 mg/day subcutaneous
Excerpt: The patient is a person diagnosed with bronchioloalveolar carcinoma of the lung approximately four years ago. […] underwent a right upperlobectomy and intensive chemotherapy with multiple agents.

[6] = IMR32 membranes, competitive binding, 17° C., 30 minutes

SMILES | Kd [1, 6] | IC50 [2] | further results
CC(C)[C@@H]1NC(=O)[C@H](CCCCN)NC(=O)[C@@H](Cc2c[nH]c3ccccc23)NC(=O)[C@H](Cc2ccc(O)cc2)NC(=O)[C@@H](NC(=O)[C@H](N)Cc2ccc3ccccc3c2)CSSC[C@@H](C(=O)N[C@H](C(N)=O)[C@@H](C)O)NC1=O [LANREOTIDE ®, Dβ-Nal-Cys-Tyr-D-Trp-Lys-Val-Cys-Thr(NH2), reference compound] | – | 0.4 ± 0.1 nM | Kd [1]: 1.05 ± 0.51 nM
C[C@H](N)C(=O)NCC(=O)N[C@H]1CSSC[C@@H](C(=O)O)NC(=O)[C@H](CO)NC(=O)[C@H]([C@@H](C)O)NC(=O)[C@H](Cc2ccccc2)NC(=O)[C@H]([C@@H](C)O)NC(=O)[C@H](CCCCN)NC(=O)[C@H](Cc2c[nH]c3ccccc23)NC(=O)[C@H](Cc2ccccc2)NC(=O)[C@H](Cc2ccccc2)NC(=O)[C@H](CC(N)=O)NC(=O)[C@H](CCCCN)NC1=O [Somatostatin, reference compound] | – | 0.46 ± 0.04 nM | –
CC(C)[C@@H]1NC(=O)[C@H](CCCCN)NC(=O)[C@@H](Cc2c[nH]c3ccccc23)NC(=O)[C@H](Cc2ccc(O)cc2)NC(=O)[C@@H](NC(=O)[C@@H](Cc2ccc(O)cc2)NC(=O)[C@H](C)NC(=O)[C@@H](N)Cc2ccc(O)cc2)CSSC[C@@H](C(=O)N[C@H](C(N)=O)[C@@H](C)O)NC1=O [WOC-3A, cyclic(tyrosine-alanine-D-tyrosine-cysteine-tyrosine-D-tryptophan-lysine-v aline-cysteine-threonine)] (H-YA[dY]CY[dW]KVCT-NH2; disulfide 4-9) | – | 0.96 ± 0.01 nM | Displacement of bound radioactivity by unlabeled ligand ([1]; 10,000-fold excess of unlabeled WOC-3A or native somatostatin): no radioactivity was displaced; Total binding of radiolabeled analog to IMR-32 membranes ([1]; radiolabeled analog): high levels of total binding; Fraction of labeled peptide degraded [3]: 30%; Radiation dose to bone marrow [4]: > 450 rads
CC(C)[C@@H]1NC(=O)[C@H](CCCCN)NC(=O)[C@@H](Cc2c[nH]c3ccccc23)NC(=O)[C@H](Cc2ccc(O)cc2)NC(=O)[C@@H](NC(=O)[C@@H](Cc2ccc(O)cc2)NC(=O)[C@@H](N)Cc2ccc(O)cc2)CSSC[C@@H](C(=O)N[C@H](C(N)=O)[C@@H](C)O)NC1=O [WOC-3B, cyclic(tyrosine-D-tyrosine-cysteine-tyrosine-D-tryptophan-lysine-valine-cy steine-threonine)] (H-Y[dY]CY[dW]KVCT-NH2; disulfide 3-8) | – | 0.66 ± 0.06 nM | Fraction of labeled peptide degraded [3]: 30%
C[C@@H](O)[C@H](NC(=O)[C@@H]1CSSC[C@H](NC(=O)[C@@H](Cc2ccc(O)cc2)NC(=O)[C@H](Cc2ccc(O)cc2)NC(=O)[C@H](Cc2ccc(O)cc2)NC(=O)[C@H](N)Cc2ccc(O)cc2)C(=O)N[C@@H](Cc2ccccc2)C(=O)N[C@H](Cc2c[nH]c3ccccc23)C(=O)N[C@@H](CCCCN)C(=O)N[C@@H]([C@@H](C)O)C(=O)N1)C(N)=O [WOC-4, cyclic(D-tyrosine-tyrosine-tyrosine-D-tyrosine-cysteine-phenylalanine-D-tr yptophan-lysine-threonine-cysteine-threonine)] (H-[dY]YY[dY]CF[dW]KTCT-NH2; disulfide 5-10) | 1 nM | – | –
C[C@@H](O)[C@H](NC(=O)[C@@H]1CSSC[C@H](NC(=O)[C@@H](Cc2ccccc2)NC(=O)[C@H](CCCCNC(=O)[C@H](CCCCNC(=O)[C@H](CCCCNC(=O)[C@H](N)Cc2ccc(O)cc2)NC(=O)[C@H](N)Cc2ccc(O)cc2)NC(=O)[C@H](CCCCNC(=O)[C@H](N)Cc2ccc(O)cc2)NC(=O)[C@H](N)Cc2ccc(O)cc2)NC(=O)[C@H](CCCCNC(=O)[C@H](CCCCNC(=O)[C@H](N)Cc2ccc(O)cc2)NC(=O)[C@H](N)Cc2ccc(O)cc2)NC(=O)[C@H](CCCCNC(=O)[C@H](N)Cc2ccc(O)cc2)NC(=O)[C@H](N)Cc2ccc(O)cc2)C(=O)N[C@@H](Cc2ccccc2)C(=O)N[C@H](Cc2c[nH]c3ccccc23)C(=O)N[C@@H](CCCCN)C(=O)N[C@@H]([C@@H](C)O)C(=O)N1)C(N)=O [WOC-8, cyclic[(D-tyrosine)8-(lysine)4-(lysine)2-lysine-cysteine-phenylalanine-D-tryptophan-lysine-threonine-cysteine-threonine]] | – | 2.46 ± 0.69 nM | –
C[C@@H](O)[C@@H]1NC(=O)[C@H](CCCCN)NC(=O)[C@@H](Cc2c[nH]c3ccccc23)NC(=O)[C@H](Cc2ccccc2)NC(=O)[C@@H](NC(=O)[C@H](N)Cc2ccccc2)CSSC[C@@H](C(=O)N[C@H](CO)[C@@H](C)O)NC1=O [octreotide acetate, D-Phe-Cys-Phe-D-Trp-Lys-Thr-Cys-Thr(ol)] | – | – | Tolerability of therapy [5]: tolerated this therapy well; Decrease in tumor volume ([5]; initial response, tumors later progressed): 25%

Continued, in another order:

Kd [1, 6] | SMILES | IC50 [2] | further results
5.73 ± 0.22 nM | CC(C)[C@@H]1NC(=O)[C@H](CCCCN)NC(=O)[C@@H](Cc2c[nH]c3ccccc23)NC(=O)[C@H](Cc2ccc(O)cc2)NC(=O)[C@@H](NC(=O)[C@H](N)Cc2ccc(O)cc2)CSSC[C@@H](C(=O)N[C@H](C(N)=O)[C@@H](C)O)NC1=O [WOC-2A, cyclic-(D-tyrosine-cysteine-tyrosine-D-tryptophan-lysine-valine-cysteine-t hreonine-NH2)] | 4.84 ± 0.58 nM | –
1.2 nM | C[C@@H](O)[C@H](NC(=O)[C@@H]1CSSC[C@H](NC(=O)[C@@H](Cc2ccc(O)cc2)NC(=O)[C@@H](N)Cc2ccc(O)cc2)C(=O)N[C@@H](Cc2ccccc2)C(=O)N[C@H](Cc2c[nH]c3ccccc23)C(=O)N[C@@H](CCCCN)C(=O)N[C@@H]([C@@H](C)O)C(=O)N1)C(N)=O [WOC-2B, cyclic-(tyrosine-D-tyrosine-cysteine-phenylalanine-D-tryptophan-lysine-thr eonine-cysteine-threonine-NH2)] (H-Y[dY]CF[dW]KTCT-NH2; disulfide 3-8) | – | –
